Measured values as given in US6603014B1, “Use of cyclic enamines as light protection agents” (BASF Aktiengesellschaft, priority 1999, dated 2003).

Assay: UV absorption properties (λmax and specific absorbance E 1/1) of the light protection agents
Type: physicochemical
Set-up: unit not given here
Excerpt: Further Examples 2 to 23 as in Tables 1, 2 and 3 are obtained analogously. Substituents in the aromatic rings can also be introduced later.

[1] = Table 1, specific absorbance at λmax
[2] = Table 2, specific absorbance at λmax
[3] = Table 3, specific absorbance at λmax

| λmax (Table 1, UV absorption maximum) | E^11 [1] | SMILES | other results |
| --- | --- | --- | --- |
| 316 | 1986 | COC(=O)C(C#N)=C1Nc2ccccc2N1 [Example 3] | – |
| 326 | 1784 | COc1ccc2c(c1)NC(=C(C#N)C#N)N2 [Example 4] | – |
| 328 | 1601 | COC(=O)C(C#N)=C1Nc2ccc(OC)cc2N1 [Example 5] | – |
| 334 | 821 | CCOC(=O)c1ccc2c(c1)NC(=C(C#N)C#N)N2 [Example 6] | – |
| 332 | 952 | CCOC(=O)c1ccc2c(c1)NC(=C(C#N)C(=O)OC)N2 [Example 7] | – |
| 318 | 2055 | Cc1ccc2c(c1)NC(=C(C#N)C#N)N2 [Example 8] | – |
| 320 | 1854 | COC(=O)C(C#N)=C1Nc2ccc(C)cc2N1 [Example 9] | – |
| 308 | 1844 | N#CC(C#N)=C1Nc2ccccc2O1 [Example 10] | – |
| 310 | 1778 | COC(=O)C(C#N)=C1Nc2ccccc2O1 [Example 11] | – |
| 334 | 1776 | N#CC(C#N)=C1Nc2ccccc2S1 [Example 12] | – |
| – | – | CCCCC(CC)COC(=O)/C(C#N)=C1\Sc2ccccc2N1C (stereo not shown) [Example 13] | λmax (Table 2, UV absorption maximum): 340; E^11 [2]: 1150 |
| – | – | CC1CC(OC(=O)C(C#N)=C2Sc3ccccc3N2C)CC(C)(C)C1 (stereo not shown) [Example 14] | λmax (Table 2, UV absorption maximum): 340; E^11 [2]: 1090 |
| – | – | CCCCCCN1C(=C(C#N)C(=O)OCC(CC)CCCC)Sc2ccccc21 (stereo not shown) [Example 15] | λmax (Table 2, UV absorption maximum): 340; E^11 [2]: 830 |
| – | – | CCCCCCN1C(=C(C#N)C(=O)OC2CC(C)CC(C)(C)C2)Sc2ccccc21 (stereo not shown) [Example 16] | λmax (Table 2, UV absorption maximum): 340; E^11 [2]: 790 |
| – | – | CCCCCCN1C(=C(C#N)C(=O)OC)Sc2ccccc21 [Example 17] | λmax (Table 2, UV absorption maximum): 340; E^11 [2]: 1200 |
| – | – | CCCCOC(=O)C(C#N)=C1Sc2ccccc2N1CCCC [Example 18] | λmax (Table 2, UV absorption maximum): 340; E^11 [2]: 1250 |
| – | – | COC(=O)/C(C#N)=C1\Sc2ccccc2N1CCCS(=O)(=O)O [Example 20] | λmax (Table 3, UV absorption maximum): 340; E^11 [3]: 1200 |
| – | – | COC(=O)/C(C#N)=C1\Nc2ccc(C(=O)c3ccccc3)cc2N1 [Example 21] | λmax (Table 3, UV absorption maximum): 348; E^11 [3]: 740 |
| – | – | CCCCCCN1C(=C(C#N)C(=O)OC)N(CCCCCC)c2ccccc21 [Example 22] | λmax (Table 3, UV absorption maximum): 325; E^11 [3]: 970 |
| – | – | CN1/C(=C(\C#N)C(=O)OCCS(=O)(=O)O)Sc2ccccc21 [Example 23] | λmax (Table 3, UV absorption maximum): 340; E^11 [3]: 1160 |
| – | – | COC(=O)C(C#N)=c1[nH]c2cccc3cccc([nH]1)c32 [Example 24] | λmax (Table 3, UV absorption maximum): 296; E^11 [3]: 1503 |

| SMILES | λmax (Table 1, UV absorption maximum) | E^11 [1] | other results |
| --- | --- | --- | --- |
| COC(=O)C(C#N)=C1Nc2ccccc2S1 [Example 1] | 336 | 1723 | – |
| N#CC(C#N)=C1Nc2ccccc2N1 [Example 2] | 314 | 2297 | – |
